# Test system: MCF-7 cells
# Assay: Cytotoxicity study of DOX loaded shells vs free doxorubicin solution and empty shells
# Conditions: 5 days
# Description: Human breast cancer MCF-7 cells were obtained from ATCC.
# Free DOX solution, DOX-loaded shells, and empty shells of different concentrations were used in cell cytotoxicity studies for 5 days.
# A cytotoxicity study of DOX loaded shells was carried out in vitro as compared to free doxorubicin solution (FIG. 13).
# All samples were incubated in culture media for 5 days.
compound,measurement,value
"COc1cccc2c1C(=O)c1c(O)c3c(c(O)c1C2=O)C[C@@](O)(C(=O)CO)C[C@@H]3O[C@H]1C[C@H](N)[C@H](O)[C@H](C)O1.Cl [Doxorubicin solution, Doxorubicin]",cytotoxicity compared to free DOX solution,strongest cytotoxicity
